Laboratory results from patent publication US20090142715A1, “LAMINATED RESIST USED FOR IMMERSION LITHOGRAPHY” (DAIKIN INDUSTRIES LTD., priority 2004, published 2009).
Read-outs that look alike come from different tables or passages of the source.

Test: Measurement of pKa value of monomer having hydrophilic functional group Y by NaOH titration
Format: physicochemical
Conditions: titration in water/acetone with NaOH, corrected by blank
Protocol: The method of measuring and calculating a pKa value is mentioned below using 1,1-bistrifluoromethyl-3-buten-1-ol:
In a water/acetone solution of 10/15 ml was poured 0.7865 g of CH2═CHCH2C(CF3)2OH, followed by stirring at room temperature. After it was confirmed that the solution was homogeneous, titration was carried out with 0.2 mole/L NaOH solution. A titration curve was obtained by adding the NaOH solution dropwise in increments of 0.15 ml and recording a pH value at every addition. An equivalence point was determined by an inflection point (maximum differential value of titration curve=dpH/dml) of the titration curve. In this case, the equivalence point was 14.5 ml. […] From a titration curve of water/acetone solution and aqueous solution which had been measured previously as a blank solution, a difference in a pH value derived from an electric potential difference between the solutions at titration of 7.25 ml was 1.29.
In the case of titration of 1.0865 g of CH2═CHCH2C(CF3)2OH by the same procedures as above, an equivalence point was 20.15 ml and a half of the equivalence point was 10.08 ml. A pH value at a half of the equivalence point was 10.78.
When the same procedures as above were carried out by changing the titration solution to about 0.05 mole/L NaOH, an equivalence point of 0.115 g of CH2═CHCH2C(CF3)2OH was 8.00 ml and a half of the equivalence point was 4.00 ml. A pH value at this time was 10.92.
With respect to the various fluorine-containing ethylenic monomers having OH group shown in Table 2, a pKa value was measured by the same procedures as above.

[1] = water/acetone solution, read-out: pKa

Row | Compound | pKa [1] | pKa
1 | O=C(O)C1(F)CC2C=CC1C2 (centres unmarked) | 3.8 | –
2 | C=C(F)C(F)(F)OC(F)(C(F)(F)F)C(F)(F)OC(F)(C(=O)O)C(F)(F)F (centres unmarked) [perfluoro-(9,9-dihydro-2,5-bistrifluoromethyl-3,6-dioxa-8-nonenoic acid)] | – | 3.6

Second part, the compound after the results:

Row | pKa [1] | pKa | Compound
3 | – | 12.6 | 1,1,9,9-tetrahydro-2,5-bistrifluoromethyl-3,6-dioxa-8-nonenol
4 | – | 9.6 | C=CCC(O)(C(F)(F)F)C(F)(F)F [1,1-bistrifluoromethyl-3-buten-1-ol]
5 | 3.4 | – | C=C(F)C(=O)O [CH2═CF—COOH, α-fluoroacrylic acid]
